In patent US20230095520A1, “PHARMACEUTICAL COMPOSITION FOR PREVENTING OR TREATING CANCER COMPRISING AZOLE DERIVATIVES OR PHARMACEUTICALLY ACCEPTABLE SALT THEREOF” (Yungjin Pharm. Co., Ltd., priority 2020, published 2023):

Target: T1, Recombinant purified human CDK7 (Homo sapiens, UniProt P50613)
T1 construct: purchased ThermoFisher PV3868
Assay: CDK7 activity inhibition, ADP-Glo kinase assay
Format: biochemical
Details: ATP 90 μM, MBP substrate, 2 hours 30° C.
Experimental: Recombinant purified human CDK7 (ThermoFisher, PV3868) and ADP Glo Kinase Assay Kit (Promega, V9102) were used. CDK7 was diluted with 1× kinase reaction buffer (40 mM Tris-Cl, pH 7.5, 20 mM MgCl2, 0.1 mg/ml BSA and 50 μM DTT) and added to a 96 well plate (CDK7 final concentration per reaction: 50 ng). It was finally treated with the compound of the present invention to a 1% DMSO aqueous solution, and a substrate cocktail containing ATP (final concentration of 90 μM) and 0.2 μg/μl MBP (myelin basic protein) in a total of 25 μl reaction mass was added to a 96 well plate, thereby initiating the enzymatic reaction. After 2 hours of incubation (30° C.), an equal volume (25 μl per reaction) of ADP Glo was added and incubated at room temperature for 60 minutes (30° C.). Thereafter, kinase detection reagent (50 μl per reaction) was added and incubated at room temperature for 30 minutes (30° C.). The kinase activity was measured by the chemiluminescence method according to the ADP Glo Kinase Assay Kit instruction manual, and the CDK7 inhibitory activity of the compounds of the present invention was calculated.

T1 sequence (P50613 whole entry): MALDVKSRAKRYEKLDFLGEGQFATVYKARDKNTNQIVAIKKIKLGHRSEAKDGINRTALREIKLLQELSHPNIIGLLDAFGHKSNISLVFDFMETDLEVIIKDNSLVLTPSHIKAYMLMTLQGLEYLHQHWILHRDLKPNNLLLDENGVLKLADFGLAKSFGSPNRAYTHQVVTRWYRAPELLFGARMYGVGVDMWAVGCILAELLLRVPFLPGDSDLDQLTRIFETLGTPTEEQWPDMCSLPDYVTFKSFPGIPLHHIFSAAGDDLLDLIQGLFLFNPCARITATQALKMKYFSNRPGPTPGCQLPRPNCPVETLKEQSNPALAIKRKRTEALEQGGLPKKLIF
T1 sequence (P51946 whole entry partner): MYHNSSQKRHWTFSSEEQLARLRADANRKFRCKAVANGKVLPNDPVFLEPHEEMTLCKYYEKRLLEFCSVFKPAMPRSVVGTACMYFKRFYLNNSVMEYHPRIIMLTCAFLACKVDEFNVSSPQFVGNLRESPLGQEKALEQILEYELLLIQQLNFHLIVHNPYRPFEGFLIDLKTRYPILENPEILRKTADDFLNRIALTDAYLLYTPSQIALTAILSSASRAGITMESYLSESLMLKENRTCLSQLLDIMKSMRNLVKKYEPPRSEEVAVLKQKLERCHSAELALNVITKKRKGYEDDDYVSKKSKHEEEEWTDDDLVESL
T1 sequence (P51948 whole entry partner): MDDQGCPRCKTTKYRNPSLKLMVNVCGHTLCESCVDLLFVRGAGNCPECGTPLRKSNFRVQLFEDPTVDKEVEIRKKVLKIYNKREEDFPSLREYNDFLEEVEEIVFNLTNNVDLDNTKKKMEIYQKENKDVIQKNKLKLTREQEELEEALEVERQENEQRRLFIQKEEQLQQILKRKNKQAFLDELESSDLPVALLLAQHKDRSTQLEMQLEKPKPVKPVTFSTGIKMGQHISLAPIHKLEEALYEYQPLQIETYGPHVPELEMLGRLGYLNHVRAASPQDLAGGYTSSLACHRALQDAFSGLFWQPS

IC50 [nM] | Structure (SMILES)
35 | CC(C(=O)Nc1ncc(C2CC2)s1)c1cccc(-c2ccc(NC(=O)/C=C/CN(C)C)nc2)c1 (stereo not drawn) [Compound 6, (E)-N-(5-(3-(1-((5-cyclopropylthiazol-2-yl)amino)-1-oxopropan-2-yl)phenyl)pyridin-2-yl)-4-(dimethylamino)but-2-enamide]
92 | C=CC(=O)Nc1ccc(-c2csc(C(C)C(=O)Nc3ncc(Cl)s3)c2)cn1 (stereo not drawn) [Compound 76, N-(5-(5-(1-((5-chlorothiazol-2-yl)amino)-1-oxopropan-2-yl)thiophen-3-yl)pyridin-2-yl)acrylamide]
68 | C=CC(=O)Nc1cc(F)c(-c2cncc(C(C)C(=O)Nc3ncc(C(F)(F)F)s3)c2)cn1 (stereo not drawn) [Compound 84, N-(4-fluoro-5′-(1-oxo-1-((5-(trifluoromethyl)thiazol-2-yl)amino)propan-2-yl)-[3,3′-bipyridin]-6-yl)acrylamide]
16 | C=CC(=O)Nc1ncc(-c2cncc(C(C)C(=O)Nc3ncc(C(F)(F)F)s3)c2)cc1C#N (stereo not drawn) [Compound 88, N-(5-cyano-5′-(1-oxo-1-((5-(trifluoromethyl)thiazol-2-yl)amino)propan-2-yl)-[3,3′-bipyridin]-6-yl)acrylamide]
42 | C[C@H](C(=O)Nc1ncc(C(F)(F)F)s1)c1cccc(-c2cnc(NC(=O)/C=C/CN3CCOCC3)cn2)c1 [Compound 92, (S,E)-4-morpholino-N-(5-(3-(1-oxo-1-((5-(trifluoromethyl)thiazol-2-yl)amino)propan-2-yl)phenyl)pyrazin-2-yl)but-2-enamide]
93 | C[C@H](C(=O)Nc1ncc(Cl)s1)c1cccc(-c2cnc(NC(=O)/C=C/CN(C)C)cn2)c1 [Compound 93, (S,E)-N-(5-(3-(1-((5-chlorothiazol-2-yl)amino)-1-oxopropan-2-yl)phenyl)pyrazin-2-yl)-4-(dimethylamino)but-2-enamide]
14.5 | C[C@H](C(=O)Nc1ncc(Cl)s1)c1cccc(-c2cnc(NC(=O)/C=C/CN3CC4CC3CO4)cn2)c1 (stereo partly drawn) [Compound 94, (E)-4-(2-oxa-5-azabicyclo[2.2.1]heptan-5-yl)-N-(5-(3-((S)-1-((5-chlorothiazol-2-yl)amino)-1-oxopropan-2-yl)phenyl)pyrazin-2-yl)but-2-enamide]
80.4 | C[C@H](C(=O)Nc1ncc(C(F)(F)F)s1)c1cccc(-c2cnc(NC(=O)/C=C/CN3CCN(C)CC3)cn2)c1 [Compound 95, (S,E)-4-(4-methylpiperazin-1-yl)-N-(5-(3-(1-oxo-1-((5-(trifluoromethyl)thiazol-2-yl)amino)propan-2-yl)phenyl)pyrazin-2-yl)but-2-enamide]
87 | C[C@H](C(=O)Nc1ncc(Cl)s1)c1cccc(-c2cnc(NC(=O)/C=C/CN3CCOCC3)cn2)c1 [Compound 98, (S,E)-N-(5-(3-(1-((5-chlorothiazol-2-yl)amino)-1-oxopropan-2-yl)phenyl)pyrazin-2-yl)-4-morpholinobut-2-enamide]
9.8 | COc1cc(-c2cccc([C@H](C)C(=O)Nc3ncc(C(F)(F)F)s3)c2)cnc1NC(=O)/C=C/CN(C)C [Compound 100, (S,E)-4-(dimethylamino)-N-(3-methoxy-5-(3-(1-oxo-1-((5-(trifluoromethyl)thiazol-2-yl)amino)propan-2-yl)phenyl)pyridin-2-yl)but-2-enamide]
13 | C[C@H](C(=O)Nc1ncc(C(F)(F)F)s1)c1cccc(-c2cnc(NC(=O)/C=C/CN3CCCC3)cn2)c1 [Compound 102, (S,E)-N-(5-(3-(1-oxo-1-((5-(trifluoromethyl)thiazol-2-yl)amino)propan-2-yl)phenyl)pyrazin-2-yl)-4-(pyrrolidin-1-yl)but-2-enamide]
13 | C[C@H](C(=O)Nc1ncc(C(F)(F)F)s1)c1cccc(-c2cnc(NC(=O)/C=C/CN3CCC3)cn2)c1 [Compound 103, (S,E)-4-(azetidin-1-yl)-N-(5-(3-(1-oxo-1-((5-(trifluoromethyl)thiazol-2-yl)amino)propan-2-yl)phenyl)pyrazin-2-yl)but-2-enamide]
71 | C[C@H](C(=O)Nc1ncc(N(C)C)s1)c1cccc(-c2cnc(NC(=O)/C=C/CN(C)C)cn2)c1 [Compound 106, (S,E)-4-(dimethylamino)-N-(5-(3-(1-((5-(dimethylamino)thiazol-2-yl)amino)oxopropan-2-yl)phenyl)pyrazin-2-yl)but-2-enamide]
31 | CC(C(=O)Nc1ncc(C(F)(F)F)s1)c1cncc(-c2ccc(NC(=O)/C=C/CN(C)C)nc2)c1 (stereo not drawn) [Compound 107, (E)-4-(dimethylamino)-N-(5′-(1-oxo-1-((5-(trifluoromethyl)thiazol-2-yl)amino)propan-2-yl)-[3,3′-bipyridin]-6-yl)but-2-enamide]
8.2 | COc1nc(-c2cccc([C@H](C)C(=O)Nc3ncc(C(F)(F)F)s3)c2)cnc1NC(=O)/C=C/CN(C)C [Compound 109, (S,E)-4-(dimethylamino)-N-(3-methoxy-5-(3-(1-oxo-1-((5-(trifluoromethyl)thiazol-2-yl)amino)propan-2-yl)phenyl)pyrazin-2-yl)but-2-enamide]
5.9 | C[C@H](C(=O)Nc1ncc(C(F)(F)F)s1)c1cccc(-c2cnc3c(c2)CCN3C(=O)/C=C/CN(C)C)c1 [Compound 110, (S,E)-2-(3-(1-(4-(dimethylamino)but-2-enoyl)-2,3-dihydro-1H-pyrrolo[2,3-b]pyridin-5-yl)phenyl)-N-(5-(trifluoromethyl)thiazol-2-yl)propanamide]
9.5 | C[C@H](C(=O)Nc1ncc(C(F)(F)F)s1)c1cccc(-c2cnc(NC(=O)/C=C/CN(C)C)c(C(F)(F)F)c2)c1 [Compound 111, (S,E)-4-(dimethylamino)-N-(5-(3-(1-oxo-1-((5-(trifluoromethyl)thiazol-2-yl)amino)propan-2-yl)phenyl)-3-(trifluoromethyl)pyridin-2-yl)but-2-enamide]
17 | Cc1cc(-c2cccc([C@H](C)C(=O)Nc3ncc(C(F)(F)F)s3)c2)cnc1NC(=O)/C=C/CN(C)C [Compound 112, (S,E)-4-(dimethylamino)-N-(3-methyl-5-(3-(1-oxo-1-((5-(trifluoromethyl)thiazol-2-yl)amino)propan-2-yl)phenyl)pyridin-2-yl)but-2-enamide]
8.5 | C[C@H](C(=O)Nc1ncc(C(F)(F)F)s1)c1cccc(-c2cnc(NC(=O)/C=C/CN(C)C)c(Cl)c2)c1 [Compound 113, (S,E)-N-(3-chloro-5-(3-(1-oxo-1-((5-(trifluoromethyl)thiazol-2-yl)amino)propan-2-yl)phenyl)pyridin-2-yl)-4-(dimethylamino)but-2-enamide]
12 | CCN(CC)C/C=C/C(=O)Nc1cnc(-c2cccc([C@H](C)C(=O)Nc3ncc(C(F)(F)F)s3)c2)cn1 [Compound 114, (S,E)-4-(diethylamino)-N-(5-(3-(1-oxo-1-((5-(trifluoromethyl)thiazol-2-yl)amino)propan-2-yl)phenyl)pyrazin-2-yl)but-2-enamide]
13.5 | C[C@H](C(=O)Nc1ncc(C(F)(F)F)s1)c1cccc(-c2ccc(NC(=O)/C=C/CN(C)C)nc2)c1 [Compound 116, (S,E)-4-(dimethylamino)-N-(5-(3-(1-oxo-1-((5-(trifluoromethyl)thiazol-2-yl)amino)propan-2-yl)phenyl)pyridin-2-yl)but-2-enamide]
